{
  "source": "paper PMC8176454",
  "about": "“Synthesis and Assessment of Novel Probes for Imaging Tau Pathology in Transgenic Mouse and Rat Models” (ACS Chemical Neuroscience, 2021)",
  "origin": "cited, not measured here",
  "test_system": "tau aggregates in P301S tau and GSK3-β X P301L tau (biGT) mice",
  "design": "method as in PMID 26912432",
  "settings": "cited from earlier work",
  "data": [
    {"smiles": "CNc1ccc(-c2ccc3cc(OCC(O)C[18F])ccc3n2)cc1", "note": "(stereo not shown) [[^18F]THK5117]", "values": [
      {"measurement": "Binding to tau aggregates in two transgenic mouse models", "result": "bound to tau aggregates"}
    ]}
  ]
}
